How the values were obtained:
[1] = test system: formation of peroxidized arachidonic acid products; test: inhibition of Fe/ascorbate-induced formation of peroxidized arachidonic acid products in the cell-free system; assay type: biochemical
From the text: (d) the formation of peroxidized arachidonic acid products in the cell-free system with an IC50 of approx. 1 μmol/l.

stomach mucosa = details: oral, daily doses of 100 mg/kg over 6 days; Prasad et al. 1976; cited from earlier work
[2] = test system: histamine-induced stomach ulcers; details: guinea pigs; Bhatia et al. 1964; cited from earlier work
[3] = test system: experimental stomach ulcers; details: rats; cited from earlier work

In the case of `COc1cc(/C=C/C(=O)CC(=O)/C=C/c2ccc(O)c(OC)c2)ccc1O` [curcumin], the “concentration in which the antioxidative effect is already achieved” value [1] is given as 1 μm, the “effect of high doses on the stomach mucosa” value (stomach mucosa) is given as “damaged the stomach mucosa” and the “protective effect against histamine-induced stomach ulcers” value [2] is given as “did not find any protective effect”. For the same compound, the “effect on experimental stomach ulcers” value [3] was “does not cure”.
